Reference: US11458155B1, “Active ingredient complexes, compositions and methods for hangover relief and to ameliorate alcohol-induced liver damage” (FULGENT LIFE INC., priority 2021, dated 2022)

Columns and labels:
[1] = cited from earlier work
[2] = after oral administration; cited from earlier work
mice [3] = conditions: intraperitoneal injection of theanine, oral administration of ethanol; cited from earlier work
glutamate receptors = conditions: not as great as that of L-glutamic acid; cited from earlier work
male C57BL/6J mice [4] = experiment: Blood ethanol concentration after ethanol ingestion (headspace gas chromatography); format: in vivo; conditions: oral/intragastric 500 mg/kg (Example 1: 250 or 500 mg/kg) before 8 ml/kg ethanol (40% w/v); FIG. 1A
Method: Mice were randomly divided into a normal group (untreated group), a control group and a treatment group, with 8 mice in each group. […] The control group was given the same ethanol solution and corresponding distilled water, while the normal group was only given corresponding distilled water. At different time points of the experiment, the mice were anesthetized by intraperitoneal injection of 10% chloral hydrate (350 mg/kg body weight). Blood and liver tissues were extracted from each animal.
Eyeball blood samples (0.3 mL) were taken, each was put into an 8 mL headspace vial containing 1.2 mL 0.6 M perchloric acid, 0.5 mL trichloroacetic acid (10%) and 0.3 mL internal standard (160 mg/L tertiary butanol), and the concentrations of ethanol and acetaldehyde were determined with headspace gas chromatography.
Blood samples were collected from the infraorbital venous plexus at different time points (as indicated) after the ethanol administration. Blood ethanol (FIG. 1A) and acetaldehyde (FIG. 1B) levels were determined. Each group contained 6-8 mice. Data are presented as the mean±SD.

male C57BL/6J mice [5] = experiment: Liver triglyceride (TG) level, lipid metabolism in acute alcoholic liver damage; format: in vivo; conditions: 500 mg/kg pretreatment, alcohol-loaded mice, vs alcohol exposure alone; FIG. 4A
cells = conditions: cited from earlier work
C57BL/6J mice = conditions: cited from earlier work
male C57BL/6J mice [6] = experiment: Serum very low density lipoprotein (VLDL), lipid metabolism in acute alcoholic liver damage; format: in vivo; conditions: 500 mg/kg pretreatment, alcohol-loaded mice, vs alcohol exposure alone; FIG. 4B
male C57BL/6J mice [7] = experiment: Liver MDA and SOD, oxidative damage caused by acute alcohol ingestion; format: in vivo; conditions: 500 mg/kg intragastric 15 min prior to 8 ml/kg ethanol (40% w/v), liver 6 hours after alcohol; for MDA content in the liver: FIG. 3A; for SOD activity in liver: FIG. 3B
male C57BL/6J mice [8] = experiment: Blood acetaldehyde concentration after ethanol ingestion (headspace gas chromatography); format: in vivo; conditions: FIG. 1B
male C57BL/6J mice [9] = experiment: Plasma AST and ALT, acute alcohol-induced hepatotoxicity; format: in vivo; conditions: 500 mg/kg intragastric before 8 ml/kg ethanol (40% w/v), blood 6 hours after alcohol, vs model group
mice [10] = conditions: cited from earlier work
rats = conditions: cited from earlier work

Compound: N[C@@H](CS)C(=O)O [L-cysteine]
- stress and anxiety ([1]; dose of 600 mg): relieved
- self-assessed severity of the hangover, nausea and headache ([1]; dose of 1200 mg): improved

Compound: CCNC(=O)CC[C@H](N)C(=O)O [L-theanine]
- time to cross the blood-brain barrier [2]: ≤ 30 min
- effect with respect to alcoholic liver injury (mice [3]): protective effect
- binding affinity to glutamate receptors (glutamate receptors): weak
- ethanol in blood (male C57BL/6J mice [4]): significantly reduce

Compound: NC(=O)C1=CN([C@@H]2O[C@H](COP(=O)(O)OP(=O)(O)OC[C@H]3O[C@@H](n4cnc5c(N)ncnc54)C(O)C3O)C(O)C2O)C=CC1 (some centres unmarked) [NADH, nicotinamide adenine dinucleotide (NAD)+hydrogen (H)]
- liver TG level (male C57BL/6J mice [5]): decreased
- cell death caused by NAD+-depleting genotoxins (cells; NADH-treated cells, e.g. hydrogen peroxide): resistant to cell death
- NAD+ increase compared to nicotinamide mononucelotide (NMN) (cells; at the same concentrations): greater NAD+ increases
- apoptosis markers in cells (cells): did not induce apoptosis markers
- liver NAD+/NADH ratio (C57BL/6J mice): significantly increased
- NAD+ content in liver, blood, brain and fat (C57BL/6J mice; intraperitoneal injection): significantly increased
- serum VLDL level (male C57BL/6J mice [6]): decreased
- MDA content in the liver (male C57BL/6J mice [7]): significantly reduce
- SOD activity in liver (male C57BL/6J mice [7]): increase
- acetaldehyde in the blood (male C57BL/6J mice [8]; after two hours after ethanol administration): significantly reduced
- blood acetaldehyde levels (male C57BL/6J mice [8]; between 30 minutes and two hours after ethanol administration): significantly increased
- ethanol in blood (male C57BL/6J mice [4]): significantly reduce
- plasma AST level (male C57BL/6J mice [9]; FIG. 2A): significantly reduce
- plasma ALT level (male C57BL/6J mice [9]; FIG. 2B): significantly reduce

Compound: O=C1c2c(O)cc(O)cc2O[C@H](c2cc(O)c(O)c(O)c2)[C@H]1O [DHM, Dihydromyricetin]
- ethanol in blood (male C57BL/6J mice [4]): significantly reduce
- blood alcohol levels (mice [10]): reduce blood alcohol levels
- muscle relaxation induced by alcohol (rats): prevent muscle relaxation

Compound: CC(=O)N[C@@H](CS)C(=O)O [NAC, N-acetyl-cysteine]
- MDA content in the liver (male C57BL/6J mice [7]): significantly reduce
- SOD activity in liver (male C57BL/6J mice [7]): increase
- ethanol in blood (male C57BL/6J mice [4]): significantly reduce
